{
  "source": "patent US20260315462A1",
  "about": "“METHODS OF TREATING RELAPSING MULTIPLE SCLEROSIS USING AN INHIBITOR OF BRUTON'S TYROSINE KINASE” (Genentech, Inc., priority 2023, published 2026)",
  "key": {"[1]": {"tested_on": "CD69 expression on B cells", "conditions": "in vitro human whole blood assay; previously presented Weber M S, et al. AAN 2021; cited from earlier work"}, "[2]": {"tested_on": "BCR-dependent B-cell proliferation", "conditions": "in vitro cell-based experiments; cited from earlier work"}, "[3]": {"tested_on": "new or enlarging T2-weighted lesions on brain MRI", "assay": "New or enlarging T2-weighted lesions on brain MRI, Phase II RMS study (secondary endpoint)", "format": "in vivo, human", "from_the_text": "(§1) This Phase II study was undertaken to evaluate the effect of fenebrutinib on brain magnetic resonance imaging (MRI) in participants with RMS. Participants were randomized to receive either fenebrutinib or placebo. In addition to MRI evaluations, participants were also monitored for other clinical outcomes of disease, including disability progression and MS relapse, as described more fully below.\n(§2) Study Design: This clinical trial comprised a double-blind treatment (DBT) phase, where participants were randomized in a 2:1 ratio to receive either 200 mg BID oral fenebrutinib or non-active placebo, administered for 12 weeks. Participants were directed to self-administer two 100 mg tablets in the morning and two 100 mg tablets in the evening by mouth, for a total dose of 400 mg of fenebrutinib (or placebo) every day.\n(§3) A total of 109 adults aged 18-55 with RMS were enrolled in the study: 73 in the fenebrutinib arm, and 36 in the placebo arm. […] Accordingly, the analysis of outcome for the double blind phase of the study included 70 patients in the fenebrutinib arm, and 36 patients in the placebo arm.\n(§4) MRI Measurements: The primary efficacy endpoint for this study was the total number of new gadolinium-enhancing T1 (T1Gd+) lesions on brain MRI measured at Weeks 4, 8, and 12 of administration. The secondary efficacy outcomes were (1) the total number of new or enlarging T2-weighted lesions on brain MRI measured at Weeks 4, 8, and 12, and (2) the proportion of participants free from any new Gd-enhancing T1 lesions and new or enlarging T2-weighted lesions observed on brain MRI at Weeks 4, 8, and 12. Radiologic evaluation for the primary efficacy parameter was performed using a standardized MRI protocol at screening, and at Weeks 4, 8, and 12 for each participant.\nResults: Secondary Endpoint-Total Number of New or Enlarging T2-Weighted Lesions at Weeks 4, 8, and 12 combined: This secondary endpoint was met, and a summary of this secondary endpoint analysis is provided in Table 5. FIG. 3 provides bar graphs illustrating some of the data in these tables and providing additional analyses. In this figure, the large arrows indicate the relative reduction (95% confidence interval) of lesions. The proportion of patients with new/enlarging T2-weighted lesions is the number of participants that have a new lesion at that specific visit alone divided by the number of participants with a scan at that specific visit alone at the indicated week. There was a 95% reduction and only 3.2% of patients with new/enlarging lesions at Week 12."}, "BTK": {"tested_on": "BTK", "conditions": "anti-IgM induced BTK Y223 autophosphorylation in human whole blood; previously presented Keaney J, et al. 2019; cited from earlier work"}, "[4]": {"assay": "Safety: adverse events in Phase II RMS study", "format": "in vivo, human", "conditions": "for Patients with ≥1 AE, %: 200 mg BID oral, 12 weeks, placebo 33.3", "experimental": "as §2, §3\nResults—Safety Summary: A summary of adverse events (AEs) for patients treated with fenebrutinib, and with placebo, is provided in Table 12."}, "[5]": {"tested_on": "inflammatory cytokine production from myeloid cells (including TNF-α)", "conditions": "in vitro cell-based experiments; cited from earlier work"}, "[6]": {"tested_on": "CD63 expression on myeloid lineage cells (basophils)", "conditions": "in vitro human whole blood assay; previously presented Weber M S, et al. AAN 2021; cited from earlier work"}, "[7]": {"tested_on": "new Gd-enhancing T1 lesions and new or enlarging T2-weighted lesions on brain MRI", "assay": "Proportion of participants free from any new Gd-enhancing T1 lesions and new or enlarging T2-weighted lesions on brain MRI, Phase II RMS study (secondary endpoint)", "format": "in vivo, human", "from_the_text": "as §1, §2, §3, §4\nResults: Secondary Endpoint-Proportion of Participants Free from any new Gd+ Enhancing T1 Lesions and New or Enlarging T2-weighted Lesions at Weeks 4, 8, and 12: This secondary endpoint was also met, and a summary of the analysis provided in Table 8."}, "[8]": {"conditions": "most common AEs, n = 73, placebo 0"}, "[9]": {"conditions": "most common AEs, n = 73, placebo 2.8"}},
  "data": [
    {"smiles": "C[C@H]1CN(C2COC2)CCN1c1ccc(Nc2cc(-c3ccnc(N4CCn5c(cc6c5CC(C)(C)C6)C4=O)c3CO)cn(C)c2=O)nc1", "note": "[Fenebrutinib, (S)-2-(3′-(hydroxymethyl)-1-methyl-5-((5-(2-methyl-4-(oxetan-3-yl)piperazin-1-yl)pyridin-2-yl)amino)-6-oxo-1,6-dihydro-[3,4′-bipyridin]-2′-yl)-7,7-dimethyl-2,3,4,6,7,8-hexahydro-1H-cyclopenta[4,5]pyrrolo[1,2-a]pyrazin-1-one]", "values": [
      {"measurement": "IC90, CD69 (B-cell activation marker)", "setting": "[1]", "result": 0.0432, "unit": "µg/mL"},
      {"measurement": "BCR-dependent B-cell proliferation", "setting": "[2]", "result": "inhibition of BCR-dependent B-cell proliferation"},
      {"measurement": "Number of New or Enlarging T2-Weighted Lesions, Mean (SD), Week 4", "setting": "[3]; 200 mg BID oral, Week 4, n = 70, min-max 0-21, placebo 1.222 (2.218)", "result": "1.043 (2.990)"},
      {"measurement": "Number of New or Enlarging T2-Weighted Lesions, Mean (SD), Week 8", "setting": "[3]; 200 mg BID oral, Week 8, n = 67, min-max 0-4, placebo 0.824 (1.359)", "result": "0.104 (0.526)"},
      {"measurement": "Number of New or Enlarging T2-Weighted Lesions, Mean (SD), Week 12", "setting": "[3]; 200 mg BID oral, Week 12, n = 63, min-max 0-1, placebo 0.545 (1.121)", "result": "0.032 (0.177)"},
      {"measurement": "Total Number of New or Enlarging T2-Weighted Lesions", "setting": "[3]; 200 mg BID oral, Weeks 4, 8, and 12 combined, N = 70, 201 scans, placebo 90", "result": 82},
      {"measurement": "New or Enlarging T2-Weighted Lesion rate, adjusted", "setting": "[3]; 200 mg BID oral, Weeks 4, 8, and 12 combined, placebo 0.634", "result": 0.168},
      {"measurement": "New or Enlarging T2-Weighted Lesion rate, unadjusted", "setting": "[3]; 200 mg BID oral, Weeks 4, 8, and 12 combined, placebo 0.874", "result": 0.408},
      {"measurement": "proportion of patients with new/enlarging T2-weighted lesions, Week 12", "setting": "[3]; Week 12, participants with a new lesion at that visit divided by participants with a scan at that visit", "result": 3.2, "unit": "%"},
      {"measurement": "Relative Reduction of New or Enlarging T2-Weighted Lesions, Week 4", "setting": "[3]; vs placebo, Week 4, 95% CI −13%, 77%", "result": 49, "unit": "%"},
      {"measurement": "Relative Reduction of New or Enlarging T2-Weighted Lesions, Week 8", "setting": "[3]; vs placebo, Week 8, 95% CI 72%, 96%", "result": 90, "unit": "%"},
      {"measurement": "Relative Reduction of New or Enlarging T2-Weighted Lesions, Week 12", "setting": "[3]; vs placebo, Week 12, 95% CI 77%, 99%", "result": 95, "unit": "%"},
      {"measurement": "Rate Ratio, adjusted (new or enlarging T2-weighted lesions)", "setting": "[3]; vs placebo, Weeks 4, 8, and 12 combined, 95% CI (0.128, 0.550)", "result": 0.265},
      {"measurement": "Relative Reduction in new or enlarging T2-weighted lesions", "setting": "[3]; vs placebo, Weeks 4, 8, and 12 combined, 95% CI (45.0%, 87.2%), p-value 0.0004", "result": 73.5, "unit": "%"},
      {"measurement": "Relative Reduction of New or Enlarging T2-Weighted Lesions, Weeks 8 and 12", "setting": "[3]; vs placebo, Weeks 8 and 12", "result": 93, "unit": "%"},
      {"measurement": "IC90, phospho-BTK", "setting": "BTK", "result": 0.0404, "unit": "µg/mL"},
      {"measurement": "Patients with ≥1 AE, %", "setting": "[4]; n = 73", "result": 38.4, "unit": "%"},
      {"measurement": "Patients with ≥1 AE, %", "setting": "[4]; n = 73, listed as FEN", "result": 38, "unit": "%"},
      {"measurement": "withdrawal: abnormal hepatic transaminase levels", "setting": "[4]; discontinuation required by protocol", "result": 4},
      {"measurement": "AE grade", "setting": "[4]; double-blind treatment phase", "result": "All AEs were Grade 1 or 2, except for two Grade 3 asymptomatic liver transaminase level elevations"},
      {"measurement": "AEs leading to withdrawal from the study", "setting": "[4]; double-blind treatment phase", "result": "four AEs leading to withdrawal from the study"},
      {"measurement": "serious AEs or deaths", "setting": "[4]; double-blind treatment phase", "result": "No SAEs were reported"},
      {"measurement": "serious AEs or deaths", "setting": "[4]; double-blind treatment phase, listed as FEN", "result": "No serious AEs or deaths were reported"},
      {"measurement": "rate of infections", "setting": "[4]; fenebrutinib vs placebo arms", "result": "balanced between the fenebrutinib and placebo arms"},
      {"measurement": "hepatic transaminase level elevations, character", "setting": "[4]; fenebrutinib-treated patients", "result": "reversible and asymptomatic"},
      {"measurement": "withdrawal: hypersensitivity", "setting": "[4]; in vivo", "result": 1},
      {"measurement": "withdrawal: upper abdominal pain", "setting": "[4]; in vivo", "result": 1},
      {"measurement": "withdrawal: upper abdominal pain; nausea and headache", "setting": "[4]; in vivo", "result": 1},
      {"measurement": "Abnormal hepatic enzyme levels, %", "setting": "[4]; [8]", "result": 5.5, "unit": "%"},
      {"measurement": "Nasopharyngitis, %", "setting": "[4]; [8]", "result": 2.7, "unit": "%"},
      {"measurement": "Upper abdominal pain, %", "setting": "[4]; [8]", "result": 2.7, "unit": "%"},
      {"measurement": "Headache, %", "setting": "[4]; [9]", "result": 4.1, "unit": "%"},
      {"measurement": "Nausea, %", "setting": "[4]; [9]", "result": 2.7, "unit": "%"},
      {"measurement": "Pharyngitis, %", "setting": "[4]; [9]", "result": 2.7, "unit": "%"},
      {"measurement": "Urinary tract infection, %", "setting": "[4]; most common AEs, n = 73, placebo 5.6", "result": 5.5, "unit": "%"},
      {"measurement": "Patients with ≥1 AE leading to dose interruption, n (%)", "setting": "[4]; n = 73", "result": 0},
      {"measurement": "Patients with ≥1 AE with fatal outcome, n (%)", "setting": "[4]; n = 73", "result": 0},
      {"measurement": "Patients with ≥1 SAE, n (%)", "setting": "[4]; n = 73", "result": 0},
      {"measurement": "Patients with ≥1 Grade 3 AE, %", "setting": "[4]; n = 73, placebo 0", "result": 2.7, "unit": "%"},
      {"measurement": "Patients withdrawn from study due to an AE, %", "setting": "[4]; n = 73, placebo 0", "result": 9.6, "unit": "%"},
      {"measurement": "Patients with ≥1 Related AE, %", "setting": "[4]; n = 73, placebo 5.6", "result": 13.7, "unit": "%"},
      {"measurement": "Total no. of AEs", "setting": "[4]; n = 73, placebo 19", "result": 40},
      {"measurement": "inflammatory cytokine production from myeloid cells", "setting": "[5]", "result": "reduction of inflammatory cytokine production from myeloid cells"},
      {"measurement": "IC90, CD63 (myeloid lineage cell activation marker)", "setting": "[6]", "result": 0.0412, "unit": "µg/mL"},
      {"measurement": "No. of patients free from T1 Gd+ and T2-weighted lesions, Week 4", "setting": "[7]; Week 4, N = 70, placebo 21 of 36", "result": 51},
      {"measurement": "Proportion free from new T1 Gd+ and new or enlarging T2-weighted lesions, Week 4", "setting": "[7]; Week 4, N = 70, placebo 58.3%", "result": 72.9, "unit": "%"},
      {"measurement": "No. of patients free from T1 Gd+ and T2-weighted lesions, Week 8", "setting": "[7]; Week 8, N = 67, placebo 20 of 34", "result": 63},
      {"measurement": "Proportion free from new T1 Gd+ and new or enlarging T2-weighted lesions, Week 8", "setting": "[7]; Week 8, N = 67, placebo 58.8%", "result": 94.0, "unit": "%"},
      {"measurement": "No. of patients free from T1 Gd+ and T2-weighted lesions, Week 12", "setting": "[7]; Week 12, N = 63, placebo 24 of 33", "result": 61},
      {"measurement": "Proportion free from new T1 Gd+ and new or enlarging T2-weighted lesions, Week 12", "setting": "[7]; Week 12, N = 63, placebo 72.7%", "result": 96.8, "unit": "%"},
      {"measurement": "No. of patients who are free from new T1 Gd+ and New or Enlarging T2-weighted Lesions During DBT", "setting": "[7]; overall, weeks 4, 8, and 12, N = 70, placebo 18", "result": 51},
      {"measurement": "Proportion of patients free from new T1 Gd+ and new or enlarging T2-weighted lesions, overall", "setting": "[7]; overall, weeks 4, 8, and 12, N = 70, placebo 50.0%", "result": 72.9, "unit": "%"},
      {"measurement": "Odds Ratio, adjusted (free from new T1 Gd+ and new or enlarging T2-weighted lesions)", "setting": "[7]; vs placebo, weeks 4, 8, and 12, 95% CI (exact) (1.317, 13.078), p-value (exact) 0.0117", "result": 4.005},
      {"measurement": "likelihood to be free from new T1 Gd+ lesions and new or enlarging T2-weighted lesions", "setting": "[7]; weeks 4, 8, and 12, compared to placebo group", "result": "four times more likely to be free from new T1 Gd+ lesions and new or enlarging T2-weighted lesions"}
    ]}
  ]
}
